Source: ChEMBL document CHEMBL1140769, “Characterization of distamycin A binding to damaged DNA” (Bioorg Med Chem, 2008)

Columns and labels:
[1] = Binding affinity to MG.C-20 DNA duplex by CD titration
[2] = Binding affinity to T.A-20 DNA duplex by CD titration
[3] = Binding affinity to G.A-20 DNA duplex by CD titration
[4] = Binding affinity to OG.A-20 DNA duplex by CD titration
[5] = Binding affinity to AP.A-20 DNA duplex by CD titration

Kd [1]: 7600 nM
Kd [2]: 370 nM
Kd [3]: 3700 nM
Kd [4]: 200 nM
Kd [5]: 2000 nM
SMILES: Cn1cc(NC(=O)c2cc(NC(=O)c3cc(NC=O)cn3C)cn2C)cc1C(=O)NCCC(=N)N [STALLIMYCIN]
